# Assay results taken from ChEMBL document CHEMBL1687921, “Natural product-based phenols as novel probes for mycobacterial and fungal carbonic anhydrases” (J Med Chem, 2011).
# How the values were obtained:
# [1] = target: T1, Carbonic anhydrase (Candida albicans (strain SC5314 / ATCC MYA-2876) (Yeast), UniProt Q5AJ71)
# T1 sequence (Q5AJ71 whole entry): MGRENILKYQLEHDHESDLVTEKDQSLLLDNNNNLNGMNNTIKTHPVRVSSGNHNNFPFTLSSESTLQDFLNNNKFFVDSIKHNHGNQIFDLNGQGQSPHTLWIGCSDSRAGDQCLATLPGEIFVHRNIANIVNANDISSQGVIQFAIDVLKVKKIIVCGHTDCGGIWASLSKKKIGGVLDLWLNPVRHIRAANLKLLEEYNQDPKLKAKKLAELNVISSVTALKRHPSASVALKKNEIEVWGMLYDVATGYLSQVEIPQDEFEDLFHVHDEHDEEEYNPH
# Description: Inhibition of Candida albicans recombinant Nce103 beta-carbonic anhydrase after 15 mins by stopped flow CO2 hydration assay
# [2] = target: T2, Beta-carbonic anhydrase 1 (Mycobacterium tuberculosis, UniProt P9WPJ7)
# T2 sequence (P9WPJ7 whole entry): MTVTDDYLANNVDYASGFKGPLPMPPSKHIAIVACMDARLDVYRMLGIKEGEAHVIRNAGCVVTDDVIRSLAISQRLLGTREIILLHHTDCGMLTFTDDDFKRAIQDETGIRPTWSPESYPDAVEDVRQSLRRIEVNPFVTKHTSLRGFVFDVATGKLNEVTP
# Description: Inhibition of Mycobacterium tuberculosis recombinant Rv1284 beta-carbonic anhydrase after 15 mins by stopped flow CO2 hydration assay
# [3] = target: T3, PROBABLE TRANSMEMBRANE CARBONIC ANHYDRASE (CARBONATE DEHYDRATASE) (CARBONIC DEHYDRATASE) (Mycobacterium tuberculosis, UniProt P96878)
# T3 sequence (P96878 whole entry): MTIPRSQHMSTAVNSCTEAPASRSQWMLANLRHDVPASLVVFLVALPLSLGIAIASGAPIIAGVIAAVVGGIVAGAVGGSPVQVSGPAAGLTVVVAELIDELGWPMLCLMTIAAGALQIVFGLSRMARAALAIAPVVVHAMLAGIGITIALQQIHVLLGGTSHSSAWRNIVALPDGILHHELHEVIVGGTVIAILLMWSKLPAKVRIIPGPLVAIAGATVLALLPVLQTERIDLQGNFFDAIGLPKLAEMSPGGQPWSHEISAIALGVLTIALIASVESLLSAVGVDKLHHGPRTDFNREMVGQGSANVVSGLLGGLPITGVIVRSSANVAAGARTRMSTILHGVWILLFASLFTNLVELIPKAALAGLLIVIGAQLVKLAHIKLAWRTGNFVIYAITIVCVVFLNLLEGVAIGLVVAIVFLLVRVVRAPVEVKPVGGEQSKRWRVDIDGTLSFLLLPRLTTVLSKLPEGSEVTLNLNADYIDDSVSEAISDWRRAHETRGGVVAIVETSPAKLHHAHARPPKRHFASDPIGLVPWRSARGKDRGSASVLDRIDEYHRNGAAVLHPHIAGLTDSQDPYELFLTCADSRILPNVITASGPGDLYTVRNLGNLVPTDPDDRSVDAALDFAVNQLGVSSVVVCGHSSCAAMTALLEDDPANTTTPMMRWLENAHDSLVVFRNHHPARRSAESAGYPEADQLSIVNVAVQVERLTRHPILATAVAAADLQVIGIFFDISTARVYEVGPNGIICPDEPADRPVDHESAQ
# Description: Inhibition of Mycobacterium tuberculosis recombinant Rv3273 beta-carbonic anhydrase after 15 mins by stopped flow CO2 hydration assay
# [4] = target: T4, Carbonic anhydrase 2 (Cryptococcus neoformans, UniProt Q3I4V7)
# T4 sequence (Q3I4V7 whole entry): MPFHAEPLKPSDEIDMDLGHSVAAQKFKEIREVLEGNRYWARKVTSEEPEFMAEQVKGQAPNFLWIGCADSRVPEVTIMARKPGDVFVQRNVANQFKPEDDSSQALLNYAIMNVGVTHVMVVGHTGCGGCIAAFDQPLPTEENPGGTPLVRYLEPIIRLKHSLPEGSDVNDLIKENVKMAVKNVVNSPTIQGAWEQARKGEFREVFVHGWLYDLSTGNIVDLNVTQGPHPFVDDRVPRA
# Description: Inhibition of Cryptococcus neoformans recombinant Can2 beta-carbonic anhydrase after 15 mins by stopped flow CO2 hydration assay
# [5] = target: Carbonic anhydrase 1 (Homo sapiens, UniProt P00915)
# Carbonic anhydrase 1, sequence (P00915 whole entry): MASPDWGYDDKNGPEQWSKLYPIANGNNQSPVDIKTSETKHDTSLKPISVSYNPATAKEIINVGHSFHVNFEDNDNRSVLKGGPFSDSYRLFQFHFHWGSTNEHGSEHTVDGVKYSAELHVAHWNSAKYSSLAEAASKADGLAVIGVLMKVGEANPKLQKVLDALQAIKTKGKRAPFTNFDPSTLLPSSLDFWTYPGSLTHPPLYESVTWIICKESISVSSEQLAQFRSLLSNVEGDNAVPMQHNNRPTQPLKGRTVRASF
# Description: Inhibition of human recombinant alpha-carbonic anhydrase 1 after 15 mins by stopped flow CO2 hydration assay
# [6] = target: Carbonic anhydrase 2 (Homo sapiens, UniProt P00918)
# Description: Inhibition of human recombinant alpha-carbonic anhydrase 2 after 15 mins by stopped flow CO2 hydration assay
# [7] = target: T5, Beta-carbonic anhydrase 1 (Mycobacterium tuberculosis) (UniProt P9WPJ7)
# T5 sequence (whole entry): T2 sequence (P9WPJ7 whole entry)
SMILES,Ki [1] [nM],Ki [2] [nM],Ki [3] [nM],Ki [4] [nM],Ki [5] [nM],Ki [6] [nM],fold change (FC) [7]
NC(=O)Cc1ccc(O)c(Cl)c1,1000,10500,11200,850,–,–,–
Nc1ccc(S(N)(=O)=O)cc1 [SULFANILAMIDE],–,–,7110,–,–,–,–
COc1cc([C@@H]2[C@@H](C)[C@@H](C)[C@@H]2c2ccc(O)c(OC)c2)ccc1O [ENDIANDRIN B],700,800,890,950,354000,12100,–
O=C(Cc1ccc(O)c(Cl)c1)NCc1ccccc1,780,12200,980,720,10500,11400,–
OCCc1ccc(O)cc1 [TYROSOL],1100,850,12100,1080,430000,8700,75
CC(C)(C)NC(=O)Cc1ccc(O)c(Cl)c1,960,12300,10200,910,–,–,–
COC(=O)/C=C/C(=O)N[C@H](Cc1ccc(O)c(Cl)c1)C(=O)O [(-)-XYLARIAMIDE A],1030,840,11300,1150,–,–,–
COc1ccc(CCNC(=O)Cc2ccc(O)c(Cl)c2)cc1OC,750,1780,900,860,–,–,–
NC1=N/C(=C\c2ccc(O)c(O)c2)C(=O)N1 [POLYANDROCARPAMINE B],900,910,920,950,–,–,–
CC1(C)O[C@@H]2[C@@H](CO[C@@]3(COS(N)(=O)=O)OC(C)(C)O[C@@H]23)O1 [TOPIRAMATE],–,–,3020,–,–,–,–
O=C(Cc1ccc(O)c(Cl)c1)NCCc1ccccc1,930,800,970,810,9600,9800,–
COc1cc(/C=C2\N=C(N)NC2=O)ccc1O [POLYANDROCARPAMINE A],920,11800,910,890,10500,9600,–
NS(=O)(=O)c1ccc(CCNC(=O)Cc2ccc(O)c(Cl)c2)cc1,790,1160,850,740,–,–,–
O=C(O)Cc1ccc(O)c(Cl)c1,1080,10300,10800,1120,–,–,–
COc1cccc(CCNC(=O)Cc2ccc(O)c(Cl)c2)c1,720,1270,910,940,–,–,–
COc1cc(CO)cc2oc3ccc(O)c(C(=O)O)c3c(=O)c12,1010,990,10900,1080,–,–,–
COc1cc(C[C@@H](C)[C@H](C)Cc2ccc(O)c(OC)c2)ccc1O [(-)-DIHYDROGUAIARETICACID],620,850,9100,810,307000,230000,–
COCCNC(=O)Cc1ccc(O)c(Cl)c1,990,11000,1140,950,158000,10400,–
NS(=O)(=O)Cc1noc2ccccc12 [ZONISAMIDE],–,287000,–,–,–,–,–
Oc1ccccc1 [PHENOL],17300,64000,79000,25900,–,–,–
NC(=O)Cc1ccc(O)cc1,910,850,9120,840,–,–,–
O=C(O)Cc1ccc(O)cc1,1020,10800,11400,900,309000,10300,–
CCCCNC(=O)Cc1ccc(O)c(Cl)c1,810,11600,10400,730,10700,9400,–
COc1cc([C@@H]2[C@@H](C)[C@H](C)[C@H]2c2ccc(O)c(OC)c2)ccc1O [ENDIANDRIN A],730,820,8920,770,368000,11700,–
COc1cc(C)cc2oc3ccc(O)c(C(=O)O)c3c(=O)c12,1060,10500,11400,1120,–,–,–
COC(=O)/C=C/C(=O)N[C@@H](Cc1ccc(O)c(Cl)c1)C(=O)O [(+)-XYLARIAMIDE A],1060,710,10900,1110,–,–,–
